Source: PubChem BioAssay AID330 (DTP/NCI, 2004)
Values joined by “and” are separate entries in the source; they are usually repeats but may differ in a detail not shown here. Identical values can stand only once. Inconclusive results and toxic doses are left out. How the source made its calls: active means survival T/C of 150% or more; inactive means T/C below 125% in these data.

Tested on: P388 leukemia ip, CD2F1 mice, survival T/C
Assay: NCI In Vivo Anticancer Drug Screen. Data for tumor model P388 Leukemia (intraperitoneal) in CD2F1 (CDF1) mice
Settings: endpoint: median survival time, higher = longer survival
Outline: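 Mice carrying the transplanted tumor received test compound or vehicle. Survival was recorded in each group, and the value is the treated-group measurement divided by that of the vehicle-treated control group.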

[1] = dose: 100.0 mg/kg/injection, schedule: Q04DX002 (ip), vehicle: Klucel (hydroxypropylcellulose) (HPC)
[2] = dose: 200.0 mg/kg/injection, schedule: Q04DX002 (ip), vehicle: Klucel (hydroxypropylcellulose) (HPC)
[3] = dose: 400.0 mg/kg/injection, schedule: Q04DX002 (ip), vehicle: Klucel (hydroxypropylcellulose) (HPC)
[4] = dose: 25.0 mg/kg/injection, schedule: Q01DX009 (ip), vehicle: saline with Tween-80
[5] = dose: 50.0 mg/kg/injection, schedule: Q01DX009 (ip), vehicle: saline with Tween-80
[6] = dose: 100.0 mg/kg/injection, schedule: Q01DX009 (ip), vehicle: saline with Tween-80
[7] = dose: 100.0 mg/kg/injection, schedule: Q04DX003 (ip), vehicle: saline with Tween-80
[8] = dose: 100.0 mg/kg/injection, schedule: Q01DX009 (ip), vehicle: saline
[9] = dose: 200.0 mg/kg/injection, schedule: Q01DX009 (ip), vehicle: saline
[10] = dose: 50.0 mg/kg/injection, schedule: Q01DX009 (ip), vehicle: saline
[11] = dose: 200.0 mg/kg/injection, schedule: Q01DX009 (ip), vehicle: saline with Tween-80
[12] = dose: 100.0 mg/kg/injection, schedule: Q01DX001 (ip), vehicle: saline with Tween-80
[13] = dose: 200.0 mg/kg/injection, schedule: Q01DX001 (ip), vehicle: saline with Tween-80
[14] = dose: 400.0 mg/kg/injection, schedule: Q01DX001 (ip), vehicle: saline with Tween-80

Measured: T/C

NC(N)=NS(=O)(=O)c1ccc(N=Cc2c3ccccc3nc3ccccc23)cc1
inactive: dose: 12.5 mg/kg/injection, schedule: Q04DX002 (ip), vehicle: Klucel (hydroxypropylcellulose) (HPC) 99 % of control | dose: 25.0 mg/kg/injection, schedule: Q04DX002 (ip), vehicle: Klucel (hydroxypropylcellulose) (HPC) 94 % of control | dose: 50.0 mg/kg/injection, schedule: Q04DX002 (ip), vehicle: Klucel (hydroxypropylcellulose) (HPC) 96 % of control | [1] 96 % of control | [2] 92 % of control | [3] 96 % of control

CC1CCC(c2ccoc2)N2C1CCC(C)(Sc1ccccc1)C2O (configuration not stated)
inactive: dose: 5.5 mg/kg/injection, schedule: Q01DX004 (ip), vehicle: DMSO 95 % of control | dose: 11.0 mg/kg/injection, schedule: Q01DX004 (ip), vehicle: DMSO 115 % of control | dose: 22.0 mg/kg/injection, schedule: Q01DX004 (ip), vehicle: DMSO 113 % of control | dose: 25.0 mg/kg/injection, schedule: Q01DX001 (ip), vehicle: other 103 % of control | dose: 44.0 mg/kg/injection, schedule: Q01DX004 (ip), vehicle: DMSO 105 % of control | dose: 50.0 mg/kg/injection, schedule: Q01DX001 (ip), vehicle: other 98 % of control | dose: 100.0 mg/kg/injection, schedule: Q01DX001 (ip), vehicle: other 98 % of control

O=C(Nc1cccc(C(F)(F)F)c1)C12CC3CC(CC(C3)C1)C2
inactive: dose: 6.25 mg/kg/injection, schedule: Q01DX009 (ip), vehicle: saline with Tween-80 98 % of control | dose: 12.5 mg/kg/injection, schedule: Q01DX009 (ip), vehicle: saline with Tween-80 100 % of control | [4] 91 % of control | [5] 90 % of control | [6] 88 % of control

O=C(c1cccs1)C1Cc2ccccc2C1=O (configuration not stated)
inactive: [7] 95 % of control | dose: 200.0 mg/kg/injection, schedule: Q04DX003 (ip), vehicle: saline with Tween-80 90 % of control | dose: 400.0 mg/kg/injection, schedule: Q04DX003 (ip), vehicle: saline with Tween-80 90 % of control

CC(Br)C(=O)Nc1ncc([N+](=O)[O-])s1 (configuration not stated)
inactive: [8] 95 % of control | [9] 100 % of control

CCCOCC(=O)O
inactive: [10] 106 % of control | [8] 110 % of control | [9] 101 % of control

CC(=O)NC1=C(C#N)CCCC1
inactive: dose: 100.0 mg/kg/injection, schedule: Q04DX003 (ip), vehicle: saline 101 % of control | dose: 200.0 mg/kg/injection, schedule: Q04DX003 (ip), vehicle: saline 104 % of control | dose: 400.0 mg/kg/injection, schedule: Q04DX003 (ip), vehicle: saline 100 % of control

NC(=O)N/N=C1/CC(=O)N(c2ccccc2)C1c1ccccc1 (configuration not stated)
inactive: dose: 60.0 mg/kg/injection, schedule: Q01DX005 (ip), vehicle: saline with Tween-80 93 % of control | dose: 120.0 mg/kg/injection, schedule: Q01DX005 (ip), vehicle: saline with Tween-80 91 % of control | dose: 240.0 mg/kg/injection, schedule: Q01DX005 (ip), vehicle: saline with Tween-80 92 % of control

CCOC(=O)Nc1ccc2nc(Sc3ccc(Cl)cc3)sc2c1
inactive: [5] 103 % of control | [6] 100 % of control | [11] 106 % of control

CNC(=O)Oc1cccc2c1C(=O)OC2=O
inactive: [12] 100 % of control | [13] 92 % of control | [14] 102 % of control

O=C(C[n+]1cc2ccccc2cc1/C=N/O)c1ccccc1
inactive: dose: 50.0 mg/kg/injection, schedule: Q01DX009 (ip), vehicle: saline sonified 100 % of control | dose: 100.0 mg/kg/injection, schedule: Q01DX009 (ip), vehicle: saline sonified 100 % of control | dose: 200.0 mg/kg/injection, schedule: Q01DX009 (ip), vehicle: saline sonified 86 % of control

COc1ccc(NC(=S)NC2C(OC(C)=O)OC(COC(C)=O)C(OC(C)=O)C2OC(C)=O)cc1 (configuration not stated)
inactive: dose: 50.0 mg/kg/injection, schedule: Q01DX005 (ip), vehicle: saline with Tween-80 92 % of control | dose: 100.0 mg/kg/injection, schedule: Q01DX005 (ip), vehicle: saline with Tween-80 92 % of control | dose: 200.0 mg/kg/injection, schedule: Q01DX005 (ip), vehicle: saline with Tween-80 89 % of control

Cc1cn(O)ccc1=S
inactive: [1] 101 % of control | [2] 99 % of control | [3] 101 % of control

c1ccc(Cc2ccccn2)nc1
inactive: [6] 104 % of control | [11] 104 % of control | dose: 400.0 mg/kg/injection, schedule: Q01DX009 (ip), vehicle: saline with Tween-80 95 % of control

C/C(=C\Cl)CN(C)C
inactive: [4] 111 % of control | [5] 111 % of control | [6] 116 % of control

COCNC(=O)N=C1N(COC)COCN1COC
inactive: [12] 109 % of control | [13] 106 % of control | [14] 100 % of control

Cc1ccc2nc(NC(=S)SSC(=S)Nc3nc4ccc(C)cc4s3)sc2c1
inactive: dose: 6.25 mg/kg/injection, schedule: Q01DX009 (ip), vehicle: Klucel (hydroxypropylcellulose) (HPC) 107 % of control | dose: 12.5 mg/kg/injection, schedule: Q01DX009 (ip), vehicle: Klucel (hydroxypropylcellulose) (HPC) 108 % of control | dose: 25.0 mg/kg/injection, schedule: Q01DX009 (ip), vehicle: Klucel (hydroxypropylcellulose) (HPC) 94 % of control

O=C(N/N=C\c1ccc(O)cc1O)C(=O)N/N=C\c1ccc(O)cc1O
inactive: dose: 50.0 mg/kg/injection, schedule: Q01DX009 (ip), vehicle: Klucel (hydroxypropylcellulose) (HPC) 98 % of control | dose: 100.0 mg/kg/injection, schedule: Q01DX009 (ip), vehicle: Klucel (hydroxypropylcellulose) (HPC) 105 % of control | dose: 200.0 mg/kg/injection, schedule: Q01DX009 (ip), vehicle: Klucel (hydroxypropylcellulose) (HPC) 100 % of control

O=S1(c2ccccc2)=NC(=S)Nc2ccccc21 (configuration not stated)
inactive: [5] 111 % of control | [6] 102 % of control | [11] 98 % of control

COc1ccc(N2C(=O)/C(=C/c3ccccc3)N=C2/C=C/c2ccc(Cl)cc2)cc1
inactive: dose: 15.0 mg/kg/injection, schedule: Q01DX005 (ip), vehicle: Klucel + Tween-80 93 % of control | dose: 30.0 mg/kg/injection, schedule: Q01DX005 (ip), vehicle: Klucel + Tween-80 95 % of control | dose: 60.0 mg/kg/injection, schedule: Q01DX005 (ip), vehicle: Klucel + Tween-80 107 % of control and 96 % of control

FC(F)(F)c1ccccc1NC(=S)SCc1ccc(Cl)cc1
inactive: dose: 50.0 mg/kg/injection, schedule: Q01DX009 (ip), vehicle: suspension in saline 104 % of control | dose: 100.0 mg/kg/injection, schedule: Q01DX009 (ip), vehicle: suspension in saline 101 % of control | dose: 200.0 mg/kg/injection, schedule: Q01DX009 (ip), vehicle: suspension in saline 108 % of control

C1CCN(P(N2CCCCC2)N2CCCCC2)CC1
inactive: dose: 25.0 mg/kg/injection, schedule: Q04DX003 (ip), vehicle: saline with Tween-80 100 % of control | dose: 50.0 mg/kg/injection, schedule: Q04DX003 (ip), vehicle: saline with Tween-80 100 % of control | [7] 102 % of control and 104 % of control

Cn1nnc(-c2nnnn2N)n1
inactive: [10] 95 % of control | [8] 94 % of control | [9] 94 % of control
